The record followed here is PubChem BioAssay AID256 (DTP/NCI, 2004).

For the assay, the system named is CD2F1 mice, L1210 leukemia ip, survival T/C. Kind of assay: NCI In Vivo Anticancer Drug Screen. Data for tumor model L1210 Leukemia (intraperitoneal) in CD2F1 (CDF1) mice. Particulars: higher = longer survival. The essentials: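 Vehicle-treated tumor-bearing mice served as controls (C) for compound-treated mice (T). Reported figure is T divided by C.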
[1] abbreviates: endpoint: mean survival time, dose: 100.0 mg/kg/injection, schedule: Q01DX009 (ip), vehicle: saline with Tween-80.
Setting [2] is: endpoint: mean survival time, dose: 100.0 mg/kg/injection, schedule: Q04DX003 (ip), vehicle: saline with Tween-80.
[3] abbreviates: endpoint: mean survival time, dose: 200.0 mg/kg/injection, schedule: Q01DX009 (ip), vehicle: saline with Tween-80.
[4] abbreviates: endpoint: mean survival time, dose: 200.0 mg/kg/injection, schedule: Q04DX003 (ip), vehicle: saline with Tween-80.
The mark [5] stands for this setting: endpoint: mean survival time, dose: 400.0 mg/kg/injection, schedule: Q04DX003 (ip), vehicle: saline with Tween-80.

“And” between values parts separate entries of the source, which are not always exact repeats. Equal values may be shown once. Toxic doses and inconclusive results are not listed.

Regarding `N[C@@H](Cc1ccc(N(CCCl)CCCl)cc1)C(=O)O`, the T/C (endpoint: mean survival time, dose: 0.25 mg/kg/injection, schedule: Q01DX009 (ip), vehicle: Klucel (hydroxypropylcellulose) (HPC)) is 106 % of control and 108 % of control; the T/C (endpoint: mean survival time, dose: 0.25 mg/kg/injection, schedule: Q01DX009 (ip), vehicle: saline) is 106 % of control; the T/C (endpoint: mean survival time, dose: 0.25 mg/kg/injection, schedule: Q04DX003 (ip), vehicle: saline) is 113 % of control; the T/C (endpoint: mean survival time, dose: 0.5 mg/kg/injection, schedule: Q01DX009 (ip), vehicle: water) is 113 % of control and 112 % of control; the T/C (endpoint: mean survival time, dose: 0.5 mg/kg/injection, schedule: Q04DX003 (ip), vehicle: saline) is 118 % of control; the T/C (endpoint: mean survival time, dose: 0.75 mg/kg/injection, schedule: Q01DX009 (ip), vehicle: Klucel (hydroxypropylcellulose) (HPC)) was 115 % of control. For the same molecule, the T/C is, setting by setting: (endpoint: mean survival time, dose: 1.0 mg/kg/injection, schedule: Q01DX009 (ip), vehicle: water) 115 % of control and 123 % of control; (endpoint: mean survival time, dose: 1.0 mg/kg/injection, schedule: Q## X010 (oral), vehicle: saline) 118 % of control; (endpoint: mean survival time, dose: 2.0 mg/kg/injection, schedule: Q01DX001 (ip), vehicle: Klucel (hydroxypropylcellulose) (HPC)) 118 % of control; (endpoint: mean survival time, dose: 2.0 mg/kg/injection, schedule: Q01DX001 (ip), vehicle: other) 108 % of control; (endpoint: mean survival time, dose: 2.0 mg/kg/injection, schedule: Q01DX001 (ip), vehicle: saline with Tween-80) 122 % of control; (endpoint: mean survival time, dose: 2.0 mg/kg/injection, schedule: Q01DX005 (oral), vehicle: saline) 121 % of control. The T/C runs as follows: (endpoint: mean survival time, dose: 2.0 mg/kg/injection, schedule: Q01DX007 (ip), vehicle: saline) 166 % of control; (endpoint: mean survival time, dose: 2.0 mg/kg/injection, schedule: Q01DX009 (ip), vehicle: water) 153 % of control; (endpoint: mean survival time, dose: 2.0 mg/kg/injection, schedule: Q## X016 (oral), vehicle: saline) 103 % of control; (endpoint: mean survival time, dose: 2.5 mg/kg/injection, schedule: Q01DX009 (ip), vehicle: saline) 166 % of control; (endpoint: mean survival time, dose: 2.5 mg/kg/injection, schedule: Q04DX003 (ip), vehicle: saline) 153 % of control; (endpoint: mean survival time, dose: 3.0 mg/kg/injection, schedule: Q01DX009 (ip), vehicle: Klucel (hydroxypropylcellulose) (HPC)) 164 % of control. The T/C runs as follows: (endpoint: mean survival time, dose: 4.0 mg/kg/injection, schedule: Q01DX001 (ip), vehicle: Klucel (hydroxypropylcellulose) (HPC)) 119 % of control; (endpoint: mean survival time, dose: 4.0 mg/kg/injection, schedule: Q01DX001 (ip), vehicle: other) 121 % of control; (endpoint: mean survival time, dose: 4.0 mg/kg/injection, schedule: Q01DX007 (ip), vehicle: saline) 168 % of control; (endpoint: mean survival time, dose: 4.0 mg/kg/injection, schedule: Q01DX009 (ip), vehicle: water) 155 % of control and 208 % of control; (endpoint: mean survival time, dose: 4.0 mg/kg/injection, schedule: Q03DX003 (ip), vehicle: saline) 170 % of control; (endpoint: mean survival time, dose: 4.0 mg/kg/injection, schedule: Q## X010 (ip), vehicle: saline) 160 % of control. Moreover, the T/C is 104 % of control (endpoint: mean survival time, dose: 4.0 mg/kg/injection, schedule: Q## X016 (oral), vehicle: saline); 152 % of control (endpoint: mean survival time, dose: 4.5 mg/kg/injection, schedule: Q04DX003 (ip), vehicle: saline); 198 % of control (endpoint: mean survival time, dose: 5.0 mg/kg/injection, schedule: Q01DX009 (ip), vehicle: saline); 158 % of control (endpoint: mean survival time, dose: 6.0 mg/kg/injection, schedule: Q04DX003 (ip), vehicle: saline); 158 % of control (endpoint: mean survival time, dose: 7.5 mg/kg/injection, schedule: Q01DX001 (ip), vehicle: saline); 198 % of control (endpoint: mean survival time, dose: 7.5 mg/kg/injection, schedule: Q01DX009 (ip), vehicle: saline). For the same molecule, the T/C reads like this: (endpoint: mean survival time, dose: 7.5 mg/kg/injection, schedule: Q04DX003 (ip), vehicle: saline) 198 % of control and 266 % of control; (endpoint: mean survival time, dose: 8.0 mg/kg/injection, schedule: Q01DX001 (ip), vehicle: DMSO) 180 % of control; (endpoint: mean survival time, dose: 8.0 mg/kg/injection, schedule: Q01DX001 (ip), vehicle: Klucel (hydroxypropylcellulose) (HPC)) 180 % of control; (endpoint: mean survival time, dose: 8.0 mg/kg/injection, schedule: Q01DX001 (ip), vehicle: saline with Tween-80) 165 % of control; (endpoint: mean survival time, dose: 8.0 mg/kg/injection, schedule: Q01DX009 (ip), vehicle: water) 120 % of control and 108 % of control; (endpoint: mean survival time, dose: 8.0 mg/kg/injection, schedule: Q03DX003 (ip), vehicle: saline) 211 % of control. Moreover, the T/C is, setting by setting: (endpoint: mean survival time, dose: 8.0 mg/kg/injection, schedule: Q## X010 (oral), vehicle: saline) 96 % of control; (endpoint: mean survival time, dose: 9.0 mg/kg/injection, schedule: Q04DX003 (ip), vehicle: saline) 217 % of control; (endpoint: mean survival time, dose: 12.0 mg/kg/injection, schedule: Q04DX003 (ip), vehicle: saline) 240 % of control; (endpoint: mean survival time, dose: 16.0 mg/kg/injection, schedule: Q01DX001 (ip), vehicle: DMSO) 221 % of control; (endpoint: mean survival time, dose: 16.0 mg/kg/injection, schedule: Q01DX001 (ip), vehicle: Klucel (hydroxypropylcellulose) (HPC)) 189 % of control; (endpoint: mean survival time, dose: 16.0 mg/kg/injection, schedule: Q01DX001 (ip), vehicle: saline with Tween-80) 265 % of control. Also, the T/C is, setting by setting: (endpoint: mean survival time, dose: 16.0 mg/kg/injection, schedule: Q## X016 (oral), vehicle: saline) 164 % of control; (endpoint: mean survival time, dose: 20.0 mg/kg/injection, schedule: Q01DX001 (ip), vehicle: saline) 303 % of control and 427 % of control; (endpoint: mean survival time, dose: 32.0 mg/kg/injection, schedule: Q01DX001 (ip), vehicle: Klucel (hydroxypropylcellulose) (HPC)) 115 % of control; (endpoint: mean survival time, dose: 32.0 mg/kg/injection, schedule: Q01DX001 (ip), vehicle: other) 217 % of control; (endpoint: mean survival time, dose: 32.0 mg/kg/injection, schedule: Q01DX001 (ip), vehicle: saline with Tween-80) 183 % of control; (endpoint: median survival time, dose: 1.0 mg/kg/injection, schedule: Q01DX009 (ip), vehicle: saline) 151 % of control. The T/C by setting is: (endpoint: median survival time, dose: 1.25 mg/kg/injection, schedule: Q01DX009 (ip), vehicle: saline) 170 % of control; (endpoint: median survival time, dose: 1.5 mg/kg/injection, schedule: Q04DX003 (ip), vehicle: Klucel (hydroxypropylcellulose) (HPC)) 191 % of control; (endpoint: median survival time, dose: 2.0 mg/kg/injection, schedule: Q01DX005 (ip), vehicle: saline) 152 % of control; (endpoint: median survival time, dose: 2.0 mg/kg/injection, schedule: Q01DX009 (ip), vehicle: saline) 176 % of control; (endpoint: median survival time, dose: 2.5 mg/kg/injection, schedule: Q01DX001 (ip), vehicle: Klucel (hydroxypropylcellulose) (HPC)) 150 % of control and 195 % of control; (endpoint: median survival time, dose: 2.5 mg/kg/injection, schedule: Q01DX009 (ip), vehicle: saline) 205 % of control. The T/C is, setting by setting: (endpoint: median survival time, dose: 3.0 mg/kg/injection, schedule: Q04DX003 (ip), vehicle: Klucel (hydroxypropylcellulose) (HPC)) 182 % of control; (endpoint: median survival time, dose: 3.75 mg/kg/injection, schedule: Q01DX009 (ip), vehicle: saline) 158 % of control; (endpoint: median survival time, dose: 4.0 mg/kg/injection, schedule: Q01DX005 (ip), vehicle: saline) 176 % of control; (endpoint: median survival time, dose: 4.0 mg/kg/injection, schedule: Q01DX009 (ip), vehicle: saline) 227 % of control; (endpoint: median survival time, dose: 5.0 mg/kg/injection, schedule: Q01DX009 (ip), vehicle: saline) 357 % of control; (endpoint: median survival time, dose: 8.0 mg/kg/injection, schedule: Q01DX005 (ip), vehicle: saline) 211 % of control. The T/C is 234 % of control (endpoint: median survival time, dose: 8.0 mg/kg/injection, schedule: Q01DX009 (ip), vehicle: saline); 118 % of control (endpoint: median survival time, dose: 10.0 mg/kg/injection, schedule: Q01DX001 (ip), vehicle: Klucel (hydroxypropylcellulose) (HPC)); 183 % of control and 193 % of control (endpoint: median survival time, dose: 12.0 mg/kg/injection, schedule: Q01DX001 (ip), vehicle: saline); 114 % of control and 105 % of control (endpoint: median survival time, dose: 15.0 mg/kg/injection, schedule: Q01DX009 (ip), vehicle: saline).

Regarding `Cc1cccc(C)c1NC(=O)c1ccccc1O`, the T/C is, setting by setting: under setting [1], 98 % of control; under setting [2], 101 % of control; under setting [3], 97 % of control; under setting [4], 96 % of control; (endpoint: mean survival time, dose: 400.0 mg/kg/injection, schedule: Q01DX009 (ip), vehicle: saline with Tween-80) 100 % of control; under setting [5], 102 % of control.

Consider `Cc1ccc(C2=NNc3n[nH]c(=S)n3N2)cc1`, for which the T/C reads like this: under setting [1], 101 % of control; under setting [2], 95 % of control; under setting [3], 96 % of control; under setting [4], 93 % of control; under setting [5], 91 % of control.

With `CCOC(=O)C1CN(Cc2ccccc2)CCC1=O` (configuration not stated), the T/C was 100 % of control (endpoint: mean survival time, dose: 100.0 mg/kg/injection, schedule: Q01DX009 (ip), vehicle: saline) and 103 % of control (endpoint: mean survival time, dose: 200.0 mg/kg/injection, schedule: Q01DX009 (ip), vehicle: saline).
